{"source": "patent US11230553B2", "about": "“Nannocystin process and products” (THE RESEARCH FOUNDATION FOR THE STATE UNIVERSITY OF NEW YORK, priority 2016, dated 2022)", "origin": "cited, not measured here", "key": {"HCT116": {"system": "HCT116", "conditions": "HCT116 cancer cell line; read-out: IC50 against HCT116"}, "PC3": {"system": "PC3", "conditions": "PC3 cancer cell line; read-out: IC50 against PC3"}, "HL60": {"system": "HL60", "conditions": "HL60 cancer cell line; read-out: IC50 against HL60"}}, "note": "pIC50: −log10 of the molar value."}
{"smiles": "CC[C@H](C)[C@H]1C(=O)N[C@H](Cc2cc(Cl)c(O)c(Cl)c2)C(=O)N[C@@H](C(C)(C)O)C(=O)O[C@H](c2ccccc2)[C@H](C)/C=C/C=C(\\C)[C@H](OC)C[C@@H]2O[C@@]2(C)C(=O)N1C", "note": "[nannocystin A, (1), (1R,4S,7R,10S,13S,14R,15E,17E,19R,21S)-4-((S)-sec-butyl)-7-(3,5-dichloro-4-hydroxybenzyl)-10-(2-hydroxypropan-2-yl)-19-methoxy-1,3,14,18-tetramethyl-13-phenyl-12,22-dioxa-3,6,9-triazabicyclo[19.1.0]docosa-15,17-diene-2,5,8,11-tetraone]", "values": [{"measurement": "pIC50", "setting": "HCT116", "value": 8.92}, {"measurement": "pIC50", "setting": "PC3", "value": 9.00}, {"measurement": "pIC50", "setting": "HL60", "value": 7.92}, {"measurement": "anti-proliferative properties against 472 cancer cell lines", "setting": "472 cancer cell lines", "value": "nanomolar concentration range"}]}
